Source: ChEMBL document CHEMBL1159076, “Toosendanin: synthesis of the AB-ring and investigations of its anti-botulinum properties (Part II)” (Bioorg Med Chem, 2010)
Activity calls are given as the source filed them. The calls are words filed in the database; no cut-off is given here.

Legend:
[1] = biological target: Botulinum neurotoxin type A (Clostridium botulinum (strain Hall / ATCC 3502 / NCTC 13319 / Type A)) (UniProt P0DPI1); test: Inhibition of Clostridium botulinum strain Hall A hyper botulinum neurotoxin type A1 in rat spinal cord cells assessed as intact SNAP25 protein level at 200 uM after 24 hrs by Western blot using monoclonal anti-SNAP25 antibody; assay type: cell-based
[2] = biological target: Botulinum neurotoxin type A (Clostridium botulinum (strain Hall / ATCC 3502 / NCTC 13319 / Type A)) (UniProt P0DPI1); test: Inhibition of Clostridium botulinum strain Hall A hyper botulinum neurotoxin type A1 in rat spinal cord cells assessed as intact SNAP25 protein level at 1 mM after 24 hrs by Western blot using monoclonal anti-SNAP25 antibody; assay type: cell-based

Botulinum neurotoxin type A (Clostridium botulinum (strain Hall / ATCC 3502 / NCTC 13319 / Type A)), sequence (P0DPI1 2-448 limits assumed): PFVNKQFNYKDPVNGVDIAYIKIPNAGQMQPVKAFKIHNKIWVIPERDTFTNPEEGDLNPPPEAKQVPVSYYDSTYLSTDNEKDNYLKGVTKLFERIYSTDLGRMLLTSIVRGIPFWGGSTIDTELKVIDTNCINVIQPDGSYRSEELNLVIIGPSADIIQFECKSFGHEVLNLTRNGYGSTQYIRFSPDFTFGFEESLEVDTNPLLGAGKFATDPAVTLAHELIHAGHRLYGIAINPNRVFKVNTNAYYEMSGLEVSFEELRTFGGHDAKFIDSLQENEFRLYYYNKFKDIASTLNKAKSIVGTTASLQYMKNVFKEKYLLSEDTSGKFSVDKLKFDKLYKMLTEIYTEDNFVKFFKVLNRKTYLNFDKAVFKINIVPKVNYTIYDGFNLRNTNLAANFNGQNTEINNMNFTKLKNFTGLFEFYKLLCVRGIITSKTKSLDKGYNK

Row | SMILES | inhibition [1] | inhibition [2]
1 | CC(=O)O[C@@H]1C[C@H](O)[C@@]23CO[C@@H](O)[C@]1(C)[C@@H]2C[C@@H](O)[C@]1(C)[C@@H]3C(=O)[C@H](OC(C)=O)[C@@]2(C)[C@H](c3ccoc3)C[C@H]3O[C@]321 | Active | 
2 | CC(=O)O[C@@H]1C[C@H](O)[C@]23CC[C@@H](O)C[C@H]2[C@H]1[C@H](O)OC3 |  | inactive
3 | CC(=O)O[C@@H]1C[C@H](O)[C@]23CC[C@H](O)C[C@H]2[C@H]1[C@H](O)OC3 |  | inactive
